# Values quoted from earlier work, collected in patent US7147859B2 (Laboratorios Biosintetica LTDA., priority 2000, dated 2006).
# System: cholesterol absorbance
# Details: in vivo
smiles,measurement,value
CCC(CCC(C)C1CCC2C3CC=C4CC(O)CCC4(C)C3CCC12C)C(C)C (stereo not shown) [Betasitosterol],reduction of cholesterol absorbance,up to 68%
